Results: ChEMBL document CHEMBL1212795, “Transferable quinolone resistance in Vibrio cholerae” (2010)
In brackets after ≈: the same amount, converted by molar mass.

What was measured:
Escherichia coli [1] = test: Antibacterial activity against azide-resistant Escherichia coli J53 TET1 transconjugant with qnrVC3 gene expressing Vibrio cholerae 59 strain; type: functional
Escherichia coli [2] = test: Antibacterial activity against azide-resistant Escherichia coli J53 TET2 transconjugant with qnrVC3 gene expressing Vibrio cholerae 59 strain
Escherichia coli [3] = test: Antibacterial activity against azide-resistant Escherichia coli J53 SXT2 transconjugant with qnrVC3 gene expressing Vibrio cholerae 59 strain
Escherichia coli [4] = test: Antibacterial activity against azide-resistant Escherichia coli J53 SXT1 transconjugant with qnrVC3 gene expressing Vibrio cholerae 59 strain; type: functional
Escherichia coli [5] = test: Antibacterial activity against azide resistant Escherichia coli J53 transformed with pQE60-qnrVC3 gene Vibrio cholerae 59 strain; type: functional
Escherichia coli [6] = test: Antibacterial activity against azide-resistant Escherichia coli J53 containing plasmid pQE60; type: functional
Escherichia coli [7] = test: Antibacterial activity against azide-resistant Escherichia coli J53 SXT13-1 transconjugant with qnrVC3 gene expressing Vibrio cholerae 13 strain; type: functional

CN[C@@H]1[C@H](O[C@H]2[C@H](O[C@H]3[C@H](O)[C@@H](O)[C@H](N=C(N)N)[C@@H](O)[C@@H]3N=C(N)N)O[C@@H](C)[C@]2(O)C=O)O[C@@H](CO)[C@H](O)[C@H]1O [STREPTOMYCIN]
MIC (Escherichia coli [1]): > 192 µg/mL
MIC (Escherichia coli [2]): > 192 µg/mL
MIC (Escherichia coli [3]): > 192 µg/mL
MIC (Escherichia coli [4]): > 192 µg/mL

C[C@H]1COc2c(N3CCN(C)CC3)c(F)cc3c(=O)c(C(=O)O)cn1c23.C[C@H]1COc2c(N3CCN(C)CC3)c(F)cc3c(=O)c(C(=O)O)cn1c23.O [LEVOFLOXACIN]
MIC (Escherichia coli [1]): 0.032 µg/mL
MIC (Escherichia coli [2]): 0.125 µg/mL
MIC (Escherichia coli [5]): 0.19 µg/mL
MIC (Escherichia coli [6]): 0.032 µg/mL
MIC (Escherichia coli [3]): 0.032 µg/mL
MIC (Escherichia coli [4]): 0.19 µg/mL

COc1cc(Cc2cnc(N)nc2N)cc(OC)c1OC [TRIMETHOPRIM]
MIC (Escherichia coli [1]): > 32 µg/mL
MIC (Escherichia coli [2]): > 32 µg/mL
MIC (Escherichia coli [3]): > 32 µg/mL
MIC (Escherichia coli [4]): > 32 µg/mL

O=C(O)c1cn(C2CC2)c2cc(N3CCNCC3)c(F)cc2c1=O [CIPROFLOXACIN]
MIC (Escherichia coli [2]): 0.064 µg/mL (≈ 0.193 µM)
MIC (Escherichia coli [4]): 0.047 µg/mL (≈ 0.142 µM)

CC1(C)S[C@@H]2[C@H](NC(=O)[C@H](N)c3ccccc3)C(=O)N2[C@H]1C(=O)O [AMPICILLIN]
MIC (Escherichia coli [1]): 6 µg/mL (≈ 17.2 µM)
MIC (Escherichia coli [2]): 4 µg/mL (≈ 11.4 µM)
MIC (Escherichia coli [3]): 4 µg/mL (≈ 11.4 µM)
MIC (Escherichia coli [4]): 4 µg/mL (≈ 11.4 µM)

CN(C)[C@@H]1C(O)=C(C(N)=O)C(=O)[C@@]2(O)C(O)=C3C(=O)c4c(O)cccc4[C@@](C)(O)[C@H]3C[C@@H]12 [TETRACYCLINE]
MIC (Escherichia coli [1]): 64 µg/mL (≈ 144 µM)
MIC (Escherichia coli [2]): 64 µg/mL (≈ 144 µM)
MIC (Escherichia coli [7]): 1.5 µg/mL (≈ 3.38 µM)
MIC (Escherichia coli [3]): 64 µg/mL (≈ 144 µM)
MIC (Escherichia coli [4]): 64 µg/mL (≈ 144 µM)

CCn1cc(C(=O)O)c(=O)c2ccc(C)nc21 [NALIDIXIC ACID]
MIC (Escherichia coli [1]): 4 µg/mL (≈ 17.2 µM)
MIC (Escherichia coli [2]): 4 µg/mL (≈ 17.2 µM)
MIC (Escherichia coli [3]): 3 µg/mL (≈ 12.9 µM)
MIC (Escherichia coli [4]): 3 µg/mL (≈ 12.9 µM)

GENTAMICIN
MIC (Escherichia coli [1]): 0.75 µg/mL
MIC (Escherichia coli [4]): 0.75 µg/mL
